We go through five compounds from patent publication US20100248390A1, “COMPOSITIONS AND METHODS FOR IDENTIFYING LIGANDS OF ODORANT RECEPTORS” (DUKE UNIVERSITY, priority 2009, published 2010).

What all share (assay): CRE-luciferase assay of odorant receptor activation (Dual-Glo, Hana3A cells, RTP1S), dose-response EC50
Holding throughout (format): cell-based

For experiment [1], the target named is T1, human odorant receptors (ORs) (Homo sapiens, UniProt Q9Y3N9).
T1 construct: OR open reading frames were amplified from genomic DNA; expressed in transfected cells; host or cells: Hana3A cells, co-transfected with RTP1S, CRE-luciferase and pRL-SV40
T1 sequence (Q9Y3N9 1-320): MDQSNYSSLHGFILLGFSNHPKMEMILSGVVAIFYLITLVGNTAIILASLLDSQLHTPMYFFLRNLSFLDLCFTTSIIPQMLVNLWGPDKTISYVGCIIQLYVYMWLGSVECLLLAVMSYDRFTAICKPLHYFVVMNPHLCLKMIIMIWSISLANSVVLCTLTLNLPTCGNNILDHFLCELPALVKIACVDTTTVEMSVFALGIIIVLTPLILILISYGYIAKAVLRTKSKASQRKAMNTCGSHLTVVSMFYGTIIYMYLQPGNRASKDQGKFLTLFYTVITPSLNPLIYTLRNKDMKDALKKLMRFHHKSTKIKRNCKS
The following applies: receptor OR2W1; 0 = no response; read-out: log EC50, OR2W1 (converted). The text has this: (§1) Cloning mouse and human ORs. […] OR open reading frames were amplified from genomic DNA using proofreading KOD DNA polymerase (Toyobo/Novagen) and subcloned into pCI expression vectors (Promega) containing the first 20 residues of human rhodopsin (Rho tag). The sequences of the cloned receptors were verified by sequencing (3100 Genetic Analyzer, ABI Biosystems). Immunocytochemistry and FACS analysis. […] For FACS analysis, phycoerythrin (PE)-conjugated anti-mouse IgG (Jackson Immunologicals) was used. In order to monitor the transfection efficiency, Green Fluorescent Protein (GFP) was co-transfected with the OR. The intensity of receptor cell surface expression was calculated as the ratio of PE and GFP expression. 7-aminoactinomycin D (Calbiochem) was added before flow cytometry to mark dead cells which were excluded from the analysis. The gate and mean of PE positive cells was normalized by GFP values. Luciferase assay. […] Odorant receptor activation leads to an increase in intracellular cAMP; CRE-luciferase (Stratagene) was used to measure this change. […] Hana3A cells were plated on poly-D-lysine-coated 96-well plates (BioCoat; Becton Dickinson). […] For each 96-well plate transfected, 1 μg of CRE-Luc, 1 μg of pRL-SV40, 5 μg of odorant receptor plasmid, and 1 μg of RTP1S was used. Approximately 24 hours post transfection, the medium was replaced with CD293 chemically defined medium (Gibco) and the plate was incubed for 30 min at 37° C. The medium was then replaced with 25 μL of odorant solution diluted in CD293 and the plate was incubated for 4 hrs at 37° C. and 5% CO2. The manufacturer's protocols for measuring luciferase and Renilla luciferase activities was followed. […] All luminescence values were divided by the Renilla Luciferase activity to control for transfection efficiency in a given well. Normalized luciferase activity was calculated using the formula (LN−Lmin)/(Lmax−Lmin), where LN is the luminescence of firefly luciferase in response to the odorant, Lmin is the minimum luciferase value on a plate or set of plates, and Lmax is the maximum luciferase value on a plate or set of plates. The data was analyzed using Microsoft Excel and GraphPad Prism 4. Screening procedure. The entire OR library was stimulated with eight separate odorant mixtures formed from 93 odorants (FIG. 12). […] A comparison between the 93 individual odorants at a 100 μM dose and a no-odor control was performed for all 290 […]. Each comparison was performed in triplicate; statistical significance was assessed by t-test (uncorrected for multiple comparisons). […] A single odorant was used on each plate to avoid cross-contamination, and each OR odorant dose was tested at least three times. The data was fit to a sigmoidal curve. […] Physicochemical descriptors. […] Receptor descriptors. […] Correlations between descriptors and responses. […] All odorants for which there were fewer than 3 responsive receptors were eliminated. […] The Pearson correlation between these two sets of distances was then measured. Optimizing descriptors. […] In this method one begins with an empty set of descriptors. Each descriptor is combined with the previous set of descriptors and correlation values are computed for all of these candidate sets of descriptors. To reduce overfitting, the data is randomly divided into ten subsets and correlation values are computed for each leave-one out subset. The final correlation coefficient for each set of descriptors is the average of the correlation coefficients for each subset.
(§2) The entire OR library was stimulated with one of 8 odorant mixtures drawn from 93 odorants chosen to represent diverse functional groups, sizes, and structures (Table 3). Each mixture was applied at five different concentrations. […] The 93 odorants were then applied individually at 100 μM to the 290 mixture-responsive ORs.

Experiment [2] deals with T2, human odorant receptors (ORs) (Homo sapiens, UniProt Q8WZ94).
T2 construct: OR open reading frames were amplified from genomic DNA; expressed in transfected cells; host or cells: Hana3A cells, co-transfected with RTP1S, CRE-luciferase and pRL-SV40
T2 sequence (Q8WZ94 1-311): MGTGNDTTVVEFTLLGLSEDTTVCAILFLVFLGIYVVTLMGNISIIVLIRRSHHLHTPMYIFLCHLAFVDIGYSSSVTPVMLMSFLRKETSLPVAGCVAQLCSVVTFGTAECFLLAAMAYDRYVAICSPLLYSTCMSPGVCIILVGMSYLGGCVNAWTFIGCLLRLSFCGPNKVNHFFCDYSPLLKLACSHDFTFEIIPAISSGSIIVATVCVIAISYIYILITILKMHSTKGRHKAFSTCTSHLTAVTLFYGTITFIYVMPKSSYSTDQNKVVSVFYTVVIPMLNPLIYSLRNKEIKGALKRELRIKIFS
The following applies: receptor OR5P3; 0 = no response; read-out: log EC50, OR5P3 (converted).
Description: as §1, §2

In experiment [3] the test system is mouse odorant receptors (ORs). The following applies: for log EC50, MOR203-1: receptor MOR203-1; for log EC50, MOR261-1: receptor MOR261-1. The text has this:
Cloning mouse and human ORs. […] OR open reading frames were amplified from genomic DNA using proofreading KOD DNA polymerase (Toyobo/Novagen) and subcloned into pCI expression vectors (Promega) containing the first 20 residues of human rhodopsin (Rho tag). The sequences of the cloned receptors were verified by sequencing (3100 Genetic Analyzer, ABI Biosystems). Immunocytochemistry and FACS analysis. […] For FACS analysis, phycoerythrin (PE)-conjugated anti-mouse IgG (Jackson Immunologicals) was used. In order to monitor the transfection efficiency, Green Fluorescent Protein (GFP) was co-transfected with the OR. The intensity of receptor cell surface expression was calculated as the ratio of PE and GFP expression. 7-aminoactinomycin D (Calbiochem) was added before flow cytometry to mark dead cells which were excluded from the analysis. The gate and mean of PE positive cells was normalized by GFP values. Luciferase assay. […] Odorant receptor activation leads to an increase in intracellular cAMP; CRE-luciferase (Stratagene) was used to measure this change. […] Hana3A cells were plated on poly-D-lysine-coated 96-well plates (BioCoat; Becton Dickinson). […] For each 96-well plate transfected, 1 μg of CRE-Luc, 1 μg of pRL-SV40, 5 μg of odorant receptor plasmid, and 1 μg of RTP1S was used. Approximately 24 hours post transfection, the medium was replaced with CD293 chemically defined medium (Gibco) and the plate was incubed for 30 min at 37° C. The medium was then replaced with 25 μL of odorant solution diluted in CD293 and the plate was incubated for 4 hrs at 37° C. and 5% CO2. The manufacturer's protocols for measuring luciferase and Renilla luciferase activities was followed. […] All luminescence values were divided by the Renilla Luciferase activity to control for transfection efficiency in a given well. Normalized luciferase activity was calculated using the formula (LN−Lmin)/(Lmax−Lmin), where LN is the luminescence of firefly luciferase in response to the odorant, Lmin is the minimum luciferase value on a plate or set of plates, and Lmax is the maximum luciferase value on a plate or set of plates. The data was analyzed using Microsoft Excel and GraphPad Prism 4. Screening procedure. The entire OR library was stimulated with eight separate odorant mixtures formed from 93 odorants (FIG. 12). […] A comparison between the 93 individual odorants at a 100 μM dose and a no-odor control was performed for all 290 […]. Each comparison was performed in triplicate; statistical significance was assessed by t-test (uncorrected for multiple comparisons). […] A single odorant was used on each plate to avoid cross-contamination, and each OR odorant dose was tested at least three times. The data was fit to a sigmoidal curve. […] Physicochemical descriptors. […] Receptor descriptors. […] Correlations between descriptors and responses. […] All odorants for which there were fewer than 3 responsive receptors were eliminated. For all remaining odorant pairs the Pearson correlation between EC50 vectors and the Euclidean distance between descriptor vectors was calculated. The Pearson correlation between these two sets of distances was then measured. Optimizing descriptors. […] In this method one begins with an empty set of descriptors. Each descriptor is combined with the previous set of descriptors and correlation values are computed for all of these candidate sets of descriptors. To reduce overfitting, the data is randomly divided into ten subsets and correlation values are computed for each leave-one out subset. The final correlation coefficient for each set of descriptors is the average of the correlation coefficients for each subset. The set with the best correlation coefficient then becomes the new set of descriptors and the process is repeated until the correlation coefficient increases by less than 0.004 in three consecutive iterations.

In experiment [4] the target is T3, human odorant receptors (ORs) (Homo sapiens, UniProt O76002).
T3 construct: OR open reading frames were amplified from genomic DNA; expressed in transfected cells; host or cells: Hana3A cells, co-transfected with RTP1S, CRE-luciferase and pRL-SV40
T3 sequence (O76002 1-312): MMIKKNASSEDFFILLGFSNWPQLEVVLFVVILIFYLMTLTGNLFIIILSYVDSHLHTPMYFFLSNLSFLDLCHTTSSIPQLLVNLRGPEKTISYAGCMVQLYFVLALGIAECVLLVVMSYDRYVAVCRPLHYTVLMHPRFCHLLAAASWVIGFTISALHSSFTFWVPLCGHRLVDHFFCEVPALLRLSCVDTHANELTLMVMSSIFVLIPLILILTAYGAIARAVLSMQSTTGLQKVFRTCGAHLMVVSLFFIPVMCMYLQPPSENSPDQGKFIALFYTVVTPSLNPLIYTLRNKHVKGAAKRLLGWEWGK
The conditions noted are these: receptor OR2J2; 0 = no response; read-out: log EC50, OR2J2 (converted).
Description: as §1, §2

Experiment [5] addresses T4, human odorant receptors (ORs) (Homo sapiens, UniProt Q8TCB6).
T4 construct: OR open reading frames were amplified from genomic DNA; expressed in transfected cells; host or cells: Hana3A cells, co-transfected with RTP1S, CRE-luciferase and pRL-SV40
T4 sequence (Q8TCB6 1-318): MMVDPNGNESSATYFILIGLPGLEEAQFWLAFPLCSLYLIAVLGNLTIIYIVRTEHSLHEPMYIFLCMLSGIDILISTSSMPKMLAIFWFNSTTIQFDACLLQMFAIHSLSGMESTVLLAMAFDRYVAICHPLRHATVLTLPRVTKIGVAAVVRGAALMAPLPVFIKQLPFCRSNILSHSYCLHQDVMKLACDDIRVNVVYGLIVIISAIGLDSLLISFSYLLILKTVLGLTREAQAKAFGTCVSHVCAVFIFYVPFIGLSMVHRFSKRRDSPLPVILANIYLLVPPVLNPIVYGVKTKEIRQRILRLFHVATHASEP
The following applies: receptor OR51E1.
Description: as §1, §2

Experiment [6] addresses T5, human odorant receptors (ORs) (Homo sapiens, UniProt Q8NGJ5).
T5 construct: OR open reading frames were amplified from genomic DNA; expressed in transfected cells; host or cells: Hana3A cells, co-transfected with RTP1S, CRE-luciferase and pRL-SV40
T5 sequence (Q8NGJ5 1-315): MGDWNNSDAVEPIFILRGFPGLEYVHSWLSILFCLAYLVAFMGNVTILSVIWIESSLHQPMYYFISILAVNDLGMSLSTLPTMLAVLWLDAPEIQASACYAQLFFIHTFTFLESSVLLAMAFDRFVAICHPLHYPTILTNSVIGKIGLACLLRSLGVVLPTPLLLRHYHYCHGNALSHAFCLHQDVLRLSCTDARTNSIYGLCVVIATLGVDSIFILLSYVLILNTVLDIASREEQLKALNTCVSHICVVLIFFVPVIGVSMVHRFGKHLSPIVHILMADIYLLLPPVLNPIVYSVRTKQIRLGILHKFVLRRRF
The following applies: receptor OR51L1; read-out: log EC50 of odorant at OR51L1 (0 = no response) (converted).
Description: as §1, §2

Turning to `CCCCCCO` [1-Hexanol], the results for the EC50 in experiment [1] and in experiment [2] were 14.1 µM and 175 µM, respectively. Also, in experiment [3] (receptor MOR41-1, 0 = no response), the “log EC50, MOR41-1” value is reported as −4.064.

As to `CCCCCCCCCO` [1-Nononol], in experiment [4], the EC50 is 69.2 µM. Further, the EC50 in experiment [1] was 23.4 µM. Moreover, in experiment [3] (0 = no response), the “log EC50, MOR203-1” value was −4.456 and the “log EC50, MOR261-1” value is on record as −4.914.

With `CCCCCCCCO` [1-Octanol], the concentration giving a half-maximal response (EC50) in experiment [4] was 69.2 µM; in experiment [1], 7.45 µM. The “log EC50, MOR203-1” value in experiment [3] (0 = no response) is −3.563. Also, the “log EC50, MOR261-1” value in experiment [3] (0 = no response) is −5.192. Moreover, in experiment [3] (receptor MOR268-1, 0 = no response), the “log EC50, MOR268-1” value was −3.63.

Take `CCCCOC(=O)C(C)OC(=O)CCC` (stereo not drawn) [Butyl butyryl actate]: the “log EC50 (Table 4 value), OR51E1” value in experiment [5] was −3.473.

As to `CCCCCC(=O)O` [Hexanoic acid], the EC50 in experiment [6] was 147 µM. Moreover, in experiment [3] (receptor MOR1-1), the “log EC50 of odorant at MOR1-1 (0 = no response)” value is reported as −4.625.
